Source: ChEMBL document CHEMBL4828715, “Discovery, Structure-Activity Relationships, and In Vivo Evaluation of Novel Aryl Amides as Brain Penetrant Adaptor Protein 2-Associated Kinase 1 (AAK1) Inhibitors for the Treatment of Neuropathic Pain” (J Med Chem, 2021)
Calls of active or inactive are those of the source. The rule behind the calls is not given here.

Columns and labels:
[1] = Permeability of the compound across apical to basolateral membrane in human Caco-2 cells incubated for 2 hrs by LC-MS/MS analysis
[2] = Protein binding in mouse plasma assessed as unbound fraction at 10 uM measured after 5 hrs by equilibrium dialysis method
[3] = Drug concentration in C57BL6 mouse brain at 30 mg/kg, sc measured after 2 hrs by LC-MS/MS analysis; format: ADME, organism-based; details: read-out: Ct
[4] = Drug concentration in C57BL6 mouse plasma at 30 mg/kg, sc measured after 2 hrs by LC-MS/MS analysis; format: ADME, organism-based
[5] = Permeability of the compound across basolateral to apical membrane in human Caco-2 cells incubated for 2 hrs by LC-MS/MS analysis; format: ADME, cell-based; details: Caco-2, read-out: permeability
[6] = Ratio of drug concentration in brain to plasma in C57BL6 mouse at […], sc; format: ADME; details: read-out: BPR
[7] = Metabolic stability in mouse liver microsomes assessed as parent compound remaining at 0.5 uM incubated for 10 mins in presence of NADPH by LC-MS/MS analysis; format: ADME, Microsome; details: read-out: Stability
[8] = target: T1, AP2-associated protein kinase 1 (Homo sapiens, UniProt Q2M2I8); experiment: Inhibition of recombinant GST-Xa-tagged human AAK1 (30 to 330 residues) using 5-FAM-labelled Alla-KEEQSQITSQVTGQIGWR-NH2 peptide as substrate incubated for 3 hrs in presence of ATP by electrophoretic analysis
[9] = Metabolic stability in rat liver microsomes assessed as parent compound remaining at 0.5 uM incubated for 10 mins in presence of NADPH by LC-MS/MS analysis; format: ADME, Microsome; details: read-out: Stability
[10] = Metabolic stability in human liver microsomes assessed as parent compound remaining at 0.5 uM incubated for 10 mins in presence of NADPH by LC-MS/MS analysis; format: ADME, Microsome; details: read-out: Stability
[11] = target: T1, AP2-associated protein kinase 1; experiment: Inhibition of human AAK1 expressed in HEK293 cells assessed as suppression of AP2 phosphorylation measured after 3 hrs by Western blot analysis; format: cell-based
[12] = Efflux ratio of permeability across basolateral to apical membrane over apical to basolateral membrane in human Caco-2 cells
[13] = Protein binding in human plasma assessed as unbound fraction at 10 uM measured after 5 hrs by equilibrium dialysis method
[14] = Protein binding in rat plasma assessed as unbound fraction at 10 uM measured after 5 hrs by equilibrium dialysis method
[15] = Permeability of the compound at pH 7.4 incubated for 4 hrs by PAMPA-based UV spectrophotometry; format: ADME; details: PAMPA, pH 7.4, read-out: permeability
[16] = Permeability of the compound at pH 5.5 incubated for 4 hrs by PAMPA-based UV spectrophotometry; format: ADME; details: read-out: permeability
[17] = target: T1, AP2-associated protein kinase 1; experiment: Inhibition of AAK1 (unknown origin)
[18] = Toxicity in Sprague-Dawley rat assessed as unsteadiness at 100 mg/kg, po; format: organism-based; details: in vivo
[19] = test system: Rattus norvegicus; experiment: Antinociceptive activity in Sprague-Dawley rat model of chronic constriction injury-induced neuropathic pain assessed as reduction in mechanical hyperalgesia 100 mg/kg, po by Von Frey test relative to control; format: functional; parameters: scale not given: the % may be the effect or the level left
[20] = Toxicity in Sprague-Dawley rat assessed as drowsiness at 100 mg/kg, po; format: organism-based; details: in vivo
[21] = test system: Rattus norvegicus; experiment: Antinociceptive activity in Sprague-Dawley rat model of chronic constriction injury-induced neuropathic pain assessed as reduction in paw withdrawal latency at 100 mg/kg, po by Von Frey test; format: functional, organism-based
[22] = test system: Rattus norvegicus; experiment: Reversal of chronic constriction injury-induced mechanical allodynia in Sprague-Dawley rat model of neuropathic pain at 100 mg/kg, sc measured up to 180 mins relative to control; format: functional; details: time min <=180
[23] = test system: Rattus norvegicus; experiment: Reversal of chronic constriction injury-induced cold allodynia in Sprague-Dawley rat model of neuropathic pain at 100 mg/kg, po measured up to 180 mins relative to control; format: functional; details: time min <=180
[24] = Toxicity in Sprague-Dawley rat assessed as dizziness at 100 mg/kg, po; format: organism-based; details: in vivo
[25] = test system: Rattus norvegicus; experiment: Antinociceptive activity in Sprague-Dawley rat model of chronic constriction injury-induced neuropathic pain assessed as reduction in thermal hyperalgesia 100 mg/kg, po by Von Frey test relative to control; format: functional; parameters: scale not given: the % may be the effect or the level left
[26] = Induction of motor coordination impairment in Sprague-Dawley rat at 100 mg/kg, po measured up to 180 mins by rotarod test; format: organism-based; details: in vivo, 3 h

T1 sequence (Q2M2I8 whole entry, the tested form may be a part): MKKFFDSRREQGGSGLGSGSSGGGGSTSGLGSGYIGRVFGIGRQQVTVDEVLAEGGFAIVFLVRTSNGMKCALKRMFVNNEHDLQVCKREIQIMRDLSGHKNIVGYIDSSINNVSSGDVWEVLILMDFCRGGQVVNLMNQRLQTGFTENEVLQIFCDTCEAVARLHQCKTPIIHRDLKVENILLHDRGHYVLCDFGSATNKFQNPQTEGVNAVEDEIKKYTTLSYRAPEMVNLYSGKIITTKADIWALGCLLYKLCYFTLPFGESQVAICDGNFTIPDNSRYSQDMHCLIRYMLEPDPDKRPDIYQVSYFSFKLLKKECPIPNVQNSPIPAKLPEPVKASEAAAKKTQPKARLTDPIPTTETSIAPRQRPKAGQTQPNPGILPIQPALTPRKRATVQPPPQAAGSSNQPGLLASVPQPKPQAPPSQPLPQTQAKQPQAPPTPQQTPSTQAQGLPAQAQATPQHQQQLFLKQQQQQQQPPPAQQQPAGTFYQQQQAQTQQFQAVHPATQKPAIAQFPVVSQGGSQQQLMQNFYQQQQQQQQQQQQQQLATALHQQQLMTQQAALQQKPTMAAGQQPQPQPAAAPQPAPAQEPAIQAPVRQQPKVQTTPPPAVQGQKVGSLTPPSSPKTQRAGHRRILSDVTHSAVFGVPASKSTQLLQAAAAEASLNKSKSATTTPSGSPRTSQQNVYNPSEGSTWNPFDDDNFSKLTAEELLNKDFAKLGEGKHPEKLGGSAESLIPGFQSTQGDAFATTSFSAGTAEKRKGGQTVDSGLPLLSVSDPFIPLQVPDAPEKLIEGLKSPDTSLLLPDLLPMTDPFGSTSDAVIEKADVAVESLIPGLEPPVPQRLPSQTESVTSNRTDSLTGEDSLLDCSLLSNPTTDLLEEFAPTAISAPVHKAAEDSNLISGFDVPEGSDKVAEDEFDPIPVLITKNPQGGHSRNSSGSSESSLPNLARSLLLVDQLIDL

Compound	Papp A→B at 2 h [1]	fraction unbound at 5 h, 10 µM [2]	concentration at 2 h [3]	concentration at 2 h [4]	Papp B→A at 2 h [5]	Kp [6]	remaining at 10 min, 0.5 µM [7]	IC50 [8]	remaining at 10 min, 0.5 µM [9]	remaining at 10 min, 0.5 µM [10]	IC50 [11]	fraction unbound at 5 h, 10 µM [13]	fraction unbound at 5 h, 10 µM [14]	Papp at 4 h [15]	Papp at 4 h [16]	further results
COc1cc(NC(=O)[C@H](N)CC(C)C)ccc1-c1cn[nH]c1	4 ×10⁻⁶ cm/s	0.2	5.7 µM	29.9 µM	14.9 ×10⁻⁶ cm/s	0.21	34%	15 nM	74%	85%	190 nM	0.18	0.1			efflux ratio [12]: 3.3
COc1cc(NC(=O)[C@H](N)CC(C)C)ccc1-c1cnco1	13.7 ×10⁻⁶ cm/s	0.086	6.8 µM	7.3 µM	15.1 ×10⁻⁶ cm/s	1.17	64%	12 nM	75%	89%	60 nM	0.063	0.023	58.4 ×10⁻⁶ cm/s	56.9 ×10⁻⁶ cm/s	
Cc1nccc2c1c(=O)n(C)c1cc(OC[C@@H](N)CC(C)C)c(C#N)cc21																IC50 [17]: 0.7 nM
COc1cc(NC(=O)[C@@H]2NCCC[C@@H]2C(C)C)ccc1-c1cnco1	16.7 ×10⁻⁶ cm/s	0.028			11.9 ×10⁻⁶ cm/s		2%	10 nM	42%	60%	105 nM	0.19	0.059	43.5 ×10⁻⁶ cm/s	47.1 ×10⁻⁶ cm/s	
NCC1(CC(=O)O)CCCCC1 [GABAPENTIN]																Activity [18]: Toxic; Activity [19]: 32%; Activity [20]: Toxic; Activity [21]: Active; Activity [22]: 34%; Activity [23]: 54%; Activity [24]: Toxic; Activity [25]: 89%; Activity [26]: Toxic
